Measurements taken from patent publication US6610314B2, “Antimicrobial formulations” (Kimberly-Clark Worldwide, Inc., priority 2001, dated 2003).

Legend:
[1] = test system: Escherichia coli (ATCC 8739); assay: Alamar Blue reduction biocidal assay, 5 minute exposure; format: cell-based; conditions: for IC50: Escherichia coli, ATCC8739, ATCC 8739, 5 min, read-out: 50% Inhibitory Concentration (IC50), E. coli, 50% inhibition of Alamar Blue reduction
Experimental: (§1) In this Example, the antimicrobial efficacy (in terms of IC50 data) of several different formulations against Staphylococcus aureus, Staphylococcus epidermidis, and Escherichia coli was evaluated. The formulations tested comprised a formulation based upon the present invention as well as several other formulations comprised of various organic acids and/or surfactants, as well as surfactants alone. Microorganism Preparation: Lyophilized cultures of Escherichia coli (ATCC 8739), Staphylococcus aureus (ATCC 6538), and Staphylococcus epidermidis (ATCC 12,228) were obtained from the American Type Culture Collection (ATCC) (Rockville, Md.). All three cultures were reconstituted according to ATCC specifications. Aliquots (0.5 mL) of reconstituted 24 hour broth growth were frozen and held at −80° C. until needed. Working cultures were prepared weekly by streaking a loop of frozen culture onto tryptic soy agar plates (TSA) (Becton Dickinson Microbiology Systems, Cockeysville, Md.) and then incubating overnight at 37° C. After incubation, the cultures were held at 4° C. for not more than about 5 days. One day prior to testing, a fresh TSA plate was prepared with a sterile swab to achieve a lawn of growth and incubated at 37° C. for about 24 hours. […] Cell concentrations were determined in triplicate by taking optical density readings of a sample (200 microliters) with a ThermoMax microplate reader spectrophotometer (Molecular Devices) at 650 nm. From a standard curve the appropriate volume of the PBW containing the cells was determined to prepare 1.1×10^9 CFU/mL in the PBW. Exact cell numbers were confirmed by spread plating on TSA and incubating at 37° C. Assay Protocol: To all wells of a Microflour®2 96 well microtiter plate (8 Rows by 12 Columns) (Dynex Technologies, Chantilly, Va.) was added 25 microliters of filtered, sterilized water (Millipore Continental Water Systems, Bedford Mass.). […] After mixing, 25 microliters was transferred from each well in Row A to its corresponding well in Row B to produce a new 50 microliter mixture of sample formulation and water having one half the concentration of sample formulation as that of Row A. The Row B mixtures were aspirated 3 times to thoroughly mix the sample formulation and water combination. These serial dilutions continued down the Rows until reaching Row G (for a total of 6 dilutions from the original plates in Row A). After thorough mixing of Row G well contents, 25 microliters of each well in Row G (a total of 12) was discarded to produce a Row G having 12 columns each containing 25 microliters. […] After serial dilution, bacterial cells were introduced into the wells. […] In columns 4, 5, and 6 of each Row, 25 microliters (about 2.75×10^7 cells) of Staphylococcus epidermidis as prepared above was introduced and mixed. In columns 7, 8, and 9 of each Row, 25 microliters (about 2.75×10^7 cells) of Escherichia coli as prepared above was introduced and mixed. The sample formulations as prepared above were appropriately diluted (if necessary) prior to the introduction of the sample formulations into Row A. The dilutions were made such that, after the sample formulation was introduced into Row A, and after the cells were introduced into Row A (i.e., after reducing the initial concentration of the sample formulation by 50% two times), the initial concentrations were as follows: After the addition of the cells, incubation proceeded (5 minutes) at room temperature. After the incubation period, a 1.6 M phosphate buffer (50 microliters) was added to all wells to neutralize the biocide. Then, 3×Letheen broth (50 microliters) (Difco Laboratories, Detroit, Mich.) and Alamar Blue (25 microliters at room temperature) (AccuMed International, Westlake, Ohio) were added to each well. A positive control was also utilized in the experiment. The positive control consisted of adding sterile Milli-Q water to the wells in place of sample formulation. […]

[2] = test system: Staphylococcus aureus (ATCC 6538); assay: as above; format: cell-based; conditions: for IC50: Staphylococcus aureus, ATCC6538, 5 min, read-out: 50% Inhibitory Concentration (IC50), S. aureus, 50% inhibition of Alamar Blue reduction; for IC50 / 50% Inhibitory Concentration (IC50), S. aureus: 5 minutes incubation at room temperature; for 50% Inhibitory Concentration (IC50), S. aureus: 50% inhibition of Alamar Blue reduction
Experimental: as §1

[3] = test system: Staphylococcus epidermidis (ATCC 12,228); assay: as above; format: cell-based; conditions: for IC50: Staphylococcus epidermidis, ATCC12, 5 min, read-out: 50% Inhibitory Concentration (IC50), S. epidermidis, 50% inhibition of Alamar Blue reduction
Experimental: as §1

[4] = test system: Human stratum corneum; conditions: tape biopsies soaked 30 minutes at room temperature; against purified water controls; tested in triplicate; Sulfate
Experimental: Skin mildness was evaluated by measuring the damage caused by the biocide on the outer portion of the stratum corneum, and specifically the removal of the lipid component of the stratum corneum.
Human stratum corneum was harvested from adult legs using D-Squame tape biopsies (Cuderm Corporation, Dallas Tex.). Each biopsy harvested consisted of about 7 to 8 pulls from multiple sites on a subject's lower leg. After harvesting, the tapes containing the biopsies were soaked in the test biocide (2 mL) in covered six well tissue cultured dishes for 30 minutes at room temperature. Each biocide formulation was tested in triplicate in adjacent wells.
After soaking the tape strips in the biocide, the tape strips were removed and washed for 3 minutes with cold tap water, and dried at room temperature. After drying, the tape strips containing the biopsies were completely immersed in fushin-toluidine blue dye (Polychrome Multiple Stain, PMS: Delasco, Council Bluff, Iowa.) The immersion continued for 3 minutes after which the tape strips were removed and washed for 3 minutes in cold tap water. After washing, the tape strips were allowed to dry completely at room temperature.
The color of the dried samples was measured by color reflectance using a Minolta CR 5000 (Minolta, Osaka, Japan) spectrophotometer. The color measurements recorded the luminance (L*) and chromaticity through Chroma C* described by the equation (a^*2+b^*2)^½. The color differentials between test materials and controls were calculated according to: [(ΔL*)^2+(ΔC*)^2]^1/2=ΔE*ab. The measurements were taken against controls which were purified water.

[5] = 5 minutes incubation at room temperature
[6] = 50% inhibition of Alamar Blue reduction, 5 minutes incubation at room temperature, listed as #4, sulfate

| SMILES | IC50 [1, 5] | IC50 [2] | IC50 [3, 5] | ΔE*ab (color differential of dye-stained stratum corneum biopsies) [4] | also measured |
| --- | --- | --- | --- | --- | --- |
| O=C(O)CC(O)(CC(=O)O)C(=O)O [Biocide #1, Citric Acid] | > 6300 µg/mL | 2200 µg/mL | 710 µg/mL | – | – |
| O=C(O)CC(O)C(=O)O (stereo not drawn) [Biocide #2, Malic Acid] | 6000 µg/mL | 1300 µg/mL | 240 µg/mL | – | – |
| CCCCCCCCCCCCOS(=O)(=O)[O-].[Na+] [Biocide #4, sodium dodecyl sulfate] | ~79000 µg/mL | – | < 1000 µg/mL | – | inhibition in words, E. coli [1]: exhibited inhibition; 50% Inhibitory Concentration (IC50), E. coli [1, 6]: 79500 µg/mL; inhibition / biocidal activity in words, S. aureus [2]: exhibited inhibition; 50% Inhibitory Concentration (IC50), S. aureus ([2]; listed as #4, sulfate): 480 µg/mL; 50% Inhibitory Concentration (IC50), S. aureus ([2]; listed as sodium dodecyl sulfate, sulfate): less than 1 g/L; inhibition in words, S. epidermidis [3]: exhibited inhibition; 50% Inhibitory Concentration (IC50), S. epidermidis [3, 6]: 950 µg/mL |
| CCCCCCCCCCCCOS(=O)(=O)[O-].[Na+] [Formulation 4, Sodium Dodecyl Sulfate] | – | – | – | 34.41 | – |
| CCCCCCCCCCCCOS(=O)(=O)[O-].[Na+] [Formulation 5, Sodium Dodecyl Sulfate] | – | – | – | 20.76 | – |
| CCCCCCCCCCCCOS(=O)(=O)[O-].[Na+] [Formulation 6, Sodium Dodecyl Sulfate] | – | – | – | 3.36 | – |
